# According to ChEMBL document CHEMBL1136165, “Carbonic anhydrase activators. The selective serotonin reuptake inhibitors fluoxetine, sertraline and citalopram are strong activators of isozymes I and II” (Bioorg Med Chem Lett, 2003):
# Tests used:
# [1] = biological target: Carbonic anhydrase 1 (Homo sapiens) (UniProt P00915); assay: Maximal activatory effect against human carbonic anhydrase I (hCA I) at a concentration of 1 uM
# [2] = biological target: Carbonic anhydrase 1 (Homo sapiens) (UniProt P00915); assay: Maximal activatory effect against human carbonic anhydrase I (hCA I) at a concentration of 1 mM
# [3] = biological target: Carbonic anhydrase 1 (Homo sapiens) (UniProt P00915); assay: Maximal activatory effect against human carbonic anhydrase I (hCA I)
# [4] = biological target: Carbonic anhydrase 2 (Homo sapiens) (UniProt P00918); assay: Maximal activatory effect against human carbonic anhydrase II (hCA II)
# Sequence of Carbonic anhydrase 1 (Homo sapiens) (P00915 2-261 limits assumed): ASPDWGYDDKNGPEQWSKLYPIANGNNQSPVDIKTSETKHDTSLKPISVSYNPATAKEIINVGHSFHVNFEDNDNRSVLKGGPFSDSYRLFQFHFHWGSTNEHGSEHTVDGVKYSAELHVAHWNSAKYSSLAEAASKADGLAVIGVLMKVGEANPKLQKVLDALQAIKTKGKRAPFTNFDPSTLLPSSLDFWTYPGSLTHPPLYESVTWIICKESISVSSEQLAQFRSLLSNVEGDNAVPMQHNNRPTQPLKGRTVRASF
SMILES,Activity [1],Activity [2],Activity [3],Activity [4]
NCCc1c[nH]cn1,165%,185%,–,–
CN(C)CCCC1(c2ccc(F)cc2)OCc2cc(C#N)ccc21 (stereo not given),134%,–,148%,–
N[C@@H](Cc1ccccc1)C(=O)O,–,–,160%,210%
CN[C@H]1CC[C@@H](c2ccc(Cl)c(Cl)c2)c2ccccc21,145%,–,165%,–
CNCCC(Oc1ccc(C(F)(F)F)cc1)c1ccccc1 (stereo not given),175%,210%,–,–
